This passage reports EC50 results from patent US20230019280A1, “SUBSTITUTED ISOINDOLONYL 2,2'-BIP[…], ANALOGUES THEREOF, AND METHODS USING SAME” (priority 2019, published 2023).

One test has as its system HBsAg. Briefly: HBsAg assay (inhibition of HBsAg in HepG2.2.15 cells). The class given is cell-based, hepatitis B virus. Conditions: Hepatitis B virus, HepG2.2.15, 144 h, read-out: sAg EC50, HepG2.2.15 cells; supernatant HBsAg by CLIA at day 6 after exposure of compounds. How it is done:
Inhibition of HBsAg was determined in HepG2.2.15 cells. Cells were maintained in culture medium containing 10% fetal calf serum, […], Glutamine, penicillin/streptomycin. Cells were seeded in 96-well collagen-coated plate at a density of 30,000 cells/well. Serially diluted compounds were added to cells next day at the final DMSO concentration of 0.5%. Cells were incubated with compounds for 2-3 days, after which medium was removed. Fresh medium containing compounds was added to cells for additional 3-4 days. At day 6 after exposure of compounds, supernatant was collected, the HBsAg immunoassay (microplate-based chemiluminescence immunoassay kits, CLIA, Autobio Diagnosics Co., Zhengzhou, China, Catalog #CL0310-2) was used to determine the level of HBsAg according to manufactory instruction. Dose-response curves were generated and the EC50 value (effective concentrations that achieved 50% inhibitory effect) were determined using XLfit software. In addition, cells were seeded at a density of 5,000 cells/well for determination of cell viability in the presence and absence of compounds by using CellTiter-Glo reagent (Promega).
For `CCC1c2cc(OC)c(OC)cc2C(=O)N1c1ccnc(-c2ncccn2)n1` (stereo not drawn) [Example 1, 2-([2,2′-Bipyrimidin]-4-yl)-3-ethyl-5,6-dimethoxyisoindolin-1-one], the EC50 (in general, the concentration giving half of the maximal effect) amounted to 27 nM. On the same count and under the same terms, the figure for `CCC1c2cc(OC)c(OC)cc2C(=O)N1c1nc(-c2ncccn2)nc(C)c1C` (stereo not drawn) [Example 24, 2-(5,6-Dimethyl-[2,2′-bipyrimidin]-4-yl)-3-ethyl-5,6-dimethoxyisoindolin-1-one] is 10000 nM; for `CCC1c2cc(F)c(OC)cc2C(=O)N1c1nc(-c2ncccn2)ncc1OC` (stereo not drawn) [Example 25, 3-Ethyl-5-fluoro-6-methoxy-2-(5-methoxy-[2,2′-bipyrimidin]-4-yl)isoindolin-1-one] it is 10000 nM; for `COc1cc2c(cc1OC)C(c1ccc3c(c1)OCCO3)N(c1ccnc(-c3ncccn3)n1)C2=O` (stereo not drawn) [Example 26, 2-([2,2′-Bipyrimidin]-4-yl)-3-(2,3-dihydrobenzo[b][1,4]dioxin-6-yl)-5,6-dimethoxyisoindolin-1-one] it is 18 nM. Same read-out and setting: the figure for `COc1cc2c(cc1OC)C(c1sccc1C)N(c1ccnc(-c3ncccn3)n1)C2=O` (stereo not drawn) [Example 27, 2-([2,2′-Bipyrimidin]-4-yl)-5,6-dimethoxy-3-(3-methylthiophen-2-yl)isoindo-lin-1-one] is 1 nM; for `COc1cc2c(cc1OC)C(C1CCC1)N(c1ccnc(-c3ncccn3)n1)C2=O` (stereo not drawn) [Example 28, 2-([2,2′-Bipyrimidin]-4-yl)-3-cyclobutyl-5,6-dimethoxyisoindolin-1-one] it is 2 nM; for `COc1cc2c(cc1OC)C(C1CCOCC1)N(c1ccnc(-c3ncccn3)n1)C2=O` (stereo not drawn) [Example 29, 2-([2,2′-Bipyrimidin]-4-yl)-5,6-dimethoxy-3-(tetrahydro-2H-pyran-4-yl)isoindolin-1-one] it is 30 nM. On the same count and under the same terms, the figure for `CCC1c2cc(OC)c(OC)cc2C(=O)N1c1cnc(-c2ncccn2)nc1` (stereo not drawn) [Example 30, 3-Ethyl-5,6-dimethoxy-2-(2-pyrimidin-2-ylpyrimidin-5-yl)isoindolin-1-one] is 48000 nM; for `CCC1c2cc(OC)c(OC)cc2C(=O)N1c1cccc(-c2ncccn2)n1` (stereo not drawn) [Example 31, 3-Ethyl-5,6-dimethoxy-2-(6-(pyrimidin-2-yl)pyridin-2-yl)isoindolin-1-one] it is 7000 nM; for `CCC1c2cc(OC)c(OC)cc2C(=O)N1c1ccnc(-c2ncccn2)c1` (stereo not drawn) [Example 32, 3-Ethyl-5,6-dimethoxy-2-(2-(pyrimidin-2-yl)pyridin-4-yl)isoindolin-1-one] it is 20 nM. As for `CCC1c2cc(OC)c(OC)cc2C(=O)N1c1cncc(-c2ncccn2)n1` (stereo not drawn) [Example 35, 3-Ethyl-5,6-dimethoxy-2-(6-(pyrimidin-2-yl)pyrazin-2-yl)isoindolin-1-one], the EC50 was 1000 nM. On the same count and under the same terms, the figure for `CCC1c2cc(OC)c(OC)cc2C(=O)N1c1cc(C)nc(-c2ncccn2)n1` (stereo not drawn) [Example 36, 3-Ethyl-5,6-dimethoxy-2-(6-methyl-[2,2′-bipyrimidin]-4-yl)isoindolin-1-one] is 10000 nM; for `CCC1c2cc(OC)c(OC)cc2C(=O)N1c1cc(-c2ncccn2)ncn1` (stereo not drawn) [Example 37, 2-([2,4′-Bipyrimidin]-6′-yl)-3-ethyl-5,6-dimethoxyisoindolin-1-one] it is 290 nM. `CCCC1c2cc(OC)c(OC)cc2C(=O)N1c1ccnc(-c2ncccn2)n1` (stereo not drawn) [Example 38, 2-([2,2′-Bipyrimidin]-4-yl)-5,6-dimethoxy-3-propylisoindolin-1-one]: the EC50 came to 10 nM. Same read-out and setting: to `COc1cc2c(cc1OC)C(CC(C)C)N(c1ccnc(-c3ncccn3)n1)C2=O` (stereo not drawn) [Example 39, 2-([2,2′-Bipyrimidin]-4-yl)-3-isobutyl-5,6-dimethoxyisoindolin-1-one] belongs 2 nM; to `COc1cc2c(cc1OC)C(c1ccccc1)N(c1ccnc(-c3ncccn3)n1)C2=O` (stereo not drawn) [Example 42, 2-([2,2′-Bipyrimidin]-4-yl)-5,6-dimethoxy-3-phenylisoindolin-1-one], 1 nM. Take `COc1cc2c(cc1OC)C(C(C)(C)C)N(c1ccnc(-c3ncccn3)n1)C2=O` (stereo not drawn) [Example 45, 2-([2,2′-Bipyrimidin]-4-yl)-3-(tert-butyl)-5,6-dimethoxyisoindolin-1-one]: the EC50 is 3 nM.

For `COc1cc2c(cc1OC)C1(CC1)N(c1ccnc(-c3ncccn3)n1)C2=O` [Example 46, 2′-([2,2′-Bipyrimidin]-4-yl)-5′,6′-dimethoxyspiro[cyclopropane-1,1′-isoindolin]-3′-one], the EC50 came out at 240 nM.

With `COc1cc2c(cc1F)C1(CC1)N(c1ccnc(-c3ncccn3)n1)C2=O` [Example 47, 2′-([2,2′-Bipyrimidin]-4-yl)-6′-fluoro-5′-methoxyspiro[cyclopropane-1,1′-isoindolin]-3′-one], the EC50 worked out at 120 nM. Same read-out and setting: the figure for `CCC1c2cc(F)c(OC)cc2C(=O)N1c1ccnc(-c2ncccn2)n1` (stereo not drawn) [Example 48, 2-([2,2′-Bipyrimidin]-4-yl)-3-ethyl-5-fluoro-6-methoxyisoindolin-1-one] is 20 nM. Still for that read-out and setting: the figure for `O=C1c2c(F)cc(F)cc2CN1c1ccnc(-c2ncccn2)n1` [Example 60, 2-([2,2′-Bipyrimidin]-4-yl)-5,7-difluoroisoindolin-1-one] is 850 nM; for `O=C1c2cc(F)c(F)cc2CN1c1ccnc(-c2ncccn2)n1` [Example 61, 2-([2,2′-Bipyrimidin]-4-yl)-5,6-difluoroisoindolin-1-one] it is 450 nM; for `COc1cc2c(cc1OC)C(=O)N(c1ccnc(-c3ncccn3)n1)C2` [Example 62, 2-([2,2′-Bipyrimidin]-4-yl)-5,6-dimethoxyisoindolin-1-one] it is 130 nM.

For `COc1cc2c(cc1OC)C(=O)N(c1ccnc(-c3ncccn3)n1)CC2` [Example 63, 2-([2,2′-Bipyrimidin]-4-yl)-6,7-dimethoxy-3,4-dihydroisoquinolin-1(2H)-one], the EC50 came to 520 nM.

Turning to `O=C1c2cc(F)cc(F)c2CCN1c1ccnc(-c2ncccn2)n1` [Example 64, 2-([2,2′-Bipyrimidin]-4-yl)-5,7-difluoro-3,4-dihydroisoquinolin-1(2H)-one], the EC50 stood at 5000 nM. As for `COc1cc2c(cc1OC)CN(c1ccnc(-c3ncccn3)n1)C(=O)C2` [Example 65, 2-([2,2′-Bipyrimidin]-4-yl)-6,7-dimethoxy-1,4-dihydroisoquinolin-3(2H)-one], the EC50 was 5000 nM.

Staying with this test, now noted: read-out: sAg EC50; HepG2.2.15 cells; supernatant HBsAg by CLIA at day 6 after exposure of compounds.
`CCC1c2cc(F)c(OC)cc2C(=O)N1c1nc(-c2ncccn2)ncc1F` (single isomer, unassigned) [Example 74, 3-Ethyl-5-fluoro-2-(5-fluoro-[2,2′-bipyrimidin]-4-yl)-6-methoxyisoindolin-1-one]: the EC50 was determined as 300 nM.
